Tests used:
[1] = biological target: T1, CBS-FL mutant (293T-CBS Q222A) (Homo sapiens, UniProt P35520, Q222A); test: H2S in HEK293T cells stably expressing CBS Q222A (AzMC probe); assay type: cell-based; settings: 1 mM or 2 mM HA, 8 h
T1 construct: human CBS or hCSE full-length (CBS-FL or CSE) was subcloned into pGEX-KG, pcDNA3 or pCDH vector; expressed in transfected cells
Method: HEK293T cells were transiently transfected with empty vector (EV, i and ii), hCBS-FL (iii and iv) or hCSE (v and vi) plasmids, followed by incubation with DMSO (i–iii and v) or 10 μM CH004 (iv and vi) for 8 h before staining with 50 μM AzMC, a H2S-specific probe (“Materials and Methods” section). For larger fluorescent and bright-field images, please see Supplementary Figure 4. The expression levels of hCBS or hCSE in HEK293T cells after transient transfections were determined by western blotting using an anti-CBS antibody (3E1, 1:2000; Abnova) or anti-CSE antibody (1:500, GeneTex). The densities of protein bands for hCBS or hCSE in the blots were quantified with the ImageJ software (National Institutes of Health, Bethesda, MD, USA) and expressed as ratios of respective control (EV group). […] The fluorescent images of the H2S (blue) were accordingly quantified (“Materials and Methods” section) with ImageJ. […] A representative fluorescence image from three independent experiments is shown. […]
H2S levels in living cells were detected using a H2S-specific fluorescent probe according to a protocol described previously[31],[55]. […] After incubation with 50 μM AzMC at 37 °C for 30 min, the cells were washed 4 times with PBS, and the fluorescent images were recorded with excitation by 405 nm laser by using a A1Si (Nikon) confocal microscope. […]

hCBS Q222A = biological target: T2, hCBS Q222A (Homo sapiens, UniProt P35520, Q222A); test: purified hCBS mutant enzyme assay; assay type: biochemical; settings: 1 mM HA, 60 mM Cys, 1.2 μM CBS-413 Q222A
T2 construct: hCBS-413 (a C-terminal truncated hCBS 1–413); GST (N); made in house; host or cells: E. coli BL21
T2 sequence (P35520 1-413 Q222A): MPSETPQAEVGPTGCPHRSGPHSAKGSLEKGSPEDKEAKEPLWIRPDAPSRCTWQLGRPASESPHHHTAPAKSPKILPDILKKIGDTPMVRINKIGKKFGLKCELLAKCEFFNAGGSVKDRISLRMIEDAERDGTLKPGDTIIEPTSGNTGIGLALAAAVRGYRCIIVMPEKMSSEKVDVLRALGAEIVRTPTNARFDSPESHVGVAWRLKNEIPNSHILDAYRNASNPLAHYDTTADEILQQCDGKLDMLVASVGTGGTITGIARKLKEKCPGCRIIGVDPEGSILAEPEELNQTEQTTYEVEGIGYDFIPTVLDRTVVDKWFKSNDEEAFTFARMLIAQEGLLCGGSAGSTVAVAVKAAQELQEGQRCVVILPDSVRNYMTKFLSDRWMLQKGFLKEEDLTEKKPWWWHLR
Method: The IC50 values of CH004 for hCBS-413, hCBS-413 mutants, hCBS-FL, hCSE or hDDC were determined according to the standard assay conditions otherwise indicated.
Figure S6. […] HEK293T cells stably expressing CBS Q222A mutant (293T-CBS Q222A) were treated with 0 (DMSO control), 5 or 10 μM CH004 for 8 h before staining with the AzMC to detect H2S. The overlaid images of fluorescent and bright-field images are shown in the left panel, and the corresponding fluorescent (blue, H2S) and bright-field images are shown in the middle and right panels, respectively. Bars: 50 μm. [picture] Figure S7. The CH004-insensitive CBS Q222A mutant can be inhibited by HA. (A) HEK293T cells stably expressing CBS Q222A mutant (293T-CBS Q222A) were treated with 0 (DMSO, control), 5 or 10 μM of CH004, 1 mM or 2 mM of HA for 8 h before staining with the AzMC to detect H2S. The overlaid images of fluorescent and bright-field images are shown in the upper panel, and the corresponding fluorescent (blue, H2S) and bright-field images are shown in the middle and lower panels, respectively. Bars: 50 μm. (B) Quantification of the mean fluorescent density of H2S (blue). The intensity of blue light of the fluorescent images was quantified by ImageJ software, quantified and deduced the background signal in HEK293T-EV cells (Supplementary Figure S3B), normalized by the corresponding cell area and expressed as percentages of control (DMSO group, 100%). Means ± SDs (n=3). One-way ANOVA with Bonferroni post-tests was used for the analysis. *, p< 0.05; **, p< 0.01; n.s. no significance. The images are one representative from three independent experiments. (C) The inhibitory effect of 1 mM HA on purified CBS Q222A mutant. The assay was performed using 60 mM Cys and 1.2 μM CBS-413 Q222A mutant. The data were expressed as percentages of control (DMSO, 100%). Means ± SDs (n=4). [picture]
Table S2. Inhibitory effects of CH004 on hCBS WT and mutants.

effect on H2S [1]: substantially decreased | inhibitory effect on activity of purified CBS Q222A mutant (hCBS Q222A): could be suppressed
Compound: NO [HA, hydroxylamine, reference compound]

Source: article PMC6158189, “A pharmacological probe identifies cystathionine β-synthase as a new negative regulator for ferroptosis” (Cell Death & Disease, 2018)
